Assay results as given in article doi:10.1101/2020.05.21.108605v3 (biorxiv, 2020).

Legend:
Assay type in all cases: cell-based
hERG (IKr) [1] = target: T1, hERG (IKr) (Homo sapiens, UniProt Q12809); test: whole-cell patch clamp
KCNQ1/E1 (IKs) = KCNQ1/E1 (IKs) (Homo sapiens, UniProt P51787); test: perforated whole-cell patch clamp; settings: AZM alone, external pH 7.4
Cav1.2/β2/α2/δ1 (ICa,L) = Cav1.2/β2/α2/δ1 (ICa,L) (Homo sapiens, UniProt Q13936); test: perforated whole-cell patch clamp; settings: AZM alone, external pH 7.4
Cav1.2/β2/α2/δ1 (ICa,L), sequence (P54289 957-1103): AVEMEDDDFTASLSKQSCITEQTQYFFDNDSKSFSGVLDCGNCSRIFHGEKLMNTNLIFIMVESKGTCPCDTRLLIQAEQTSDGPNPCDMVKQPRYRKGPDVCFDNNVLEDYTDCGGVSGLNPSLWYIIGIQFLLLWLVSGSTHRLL
Cav1.2/β2/α2/δ1 (ICa,L), sequence (Q08289 whole entry, further chain): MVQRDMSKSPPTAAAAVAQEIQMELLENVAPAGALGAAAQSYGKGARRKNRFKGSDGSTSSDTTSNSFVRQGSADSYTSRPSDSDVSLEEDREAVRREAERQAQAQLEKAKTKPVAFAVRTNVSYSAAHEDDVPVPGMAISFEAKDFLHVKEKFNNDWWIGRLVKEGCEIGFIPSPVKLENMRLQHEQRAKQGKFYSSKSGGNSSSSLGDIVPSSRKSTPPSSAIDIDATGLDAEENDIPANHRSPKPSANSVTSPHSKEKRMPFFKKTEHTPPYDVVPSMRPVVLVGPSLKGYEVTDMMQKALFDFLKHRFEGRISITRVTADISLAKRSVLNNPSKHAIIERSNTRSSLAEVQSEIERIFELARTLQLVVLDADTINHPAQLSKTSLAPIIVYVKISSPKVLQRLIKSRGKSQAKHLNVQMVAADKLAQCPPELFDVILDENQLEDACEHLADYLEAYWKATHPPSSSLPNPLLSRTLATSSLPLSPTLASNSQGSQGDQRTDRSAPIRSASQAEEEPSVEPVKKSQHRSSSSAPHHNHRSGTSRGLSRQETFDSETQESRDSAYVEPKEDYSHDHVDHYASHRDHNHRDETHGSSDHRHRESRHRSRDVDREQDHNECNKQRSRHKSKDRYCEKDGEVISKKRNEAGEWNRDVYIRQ
Cav1.2/β2/α2/δ1 (ICa,L), sequence (Q13936 whole entry): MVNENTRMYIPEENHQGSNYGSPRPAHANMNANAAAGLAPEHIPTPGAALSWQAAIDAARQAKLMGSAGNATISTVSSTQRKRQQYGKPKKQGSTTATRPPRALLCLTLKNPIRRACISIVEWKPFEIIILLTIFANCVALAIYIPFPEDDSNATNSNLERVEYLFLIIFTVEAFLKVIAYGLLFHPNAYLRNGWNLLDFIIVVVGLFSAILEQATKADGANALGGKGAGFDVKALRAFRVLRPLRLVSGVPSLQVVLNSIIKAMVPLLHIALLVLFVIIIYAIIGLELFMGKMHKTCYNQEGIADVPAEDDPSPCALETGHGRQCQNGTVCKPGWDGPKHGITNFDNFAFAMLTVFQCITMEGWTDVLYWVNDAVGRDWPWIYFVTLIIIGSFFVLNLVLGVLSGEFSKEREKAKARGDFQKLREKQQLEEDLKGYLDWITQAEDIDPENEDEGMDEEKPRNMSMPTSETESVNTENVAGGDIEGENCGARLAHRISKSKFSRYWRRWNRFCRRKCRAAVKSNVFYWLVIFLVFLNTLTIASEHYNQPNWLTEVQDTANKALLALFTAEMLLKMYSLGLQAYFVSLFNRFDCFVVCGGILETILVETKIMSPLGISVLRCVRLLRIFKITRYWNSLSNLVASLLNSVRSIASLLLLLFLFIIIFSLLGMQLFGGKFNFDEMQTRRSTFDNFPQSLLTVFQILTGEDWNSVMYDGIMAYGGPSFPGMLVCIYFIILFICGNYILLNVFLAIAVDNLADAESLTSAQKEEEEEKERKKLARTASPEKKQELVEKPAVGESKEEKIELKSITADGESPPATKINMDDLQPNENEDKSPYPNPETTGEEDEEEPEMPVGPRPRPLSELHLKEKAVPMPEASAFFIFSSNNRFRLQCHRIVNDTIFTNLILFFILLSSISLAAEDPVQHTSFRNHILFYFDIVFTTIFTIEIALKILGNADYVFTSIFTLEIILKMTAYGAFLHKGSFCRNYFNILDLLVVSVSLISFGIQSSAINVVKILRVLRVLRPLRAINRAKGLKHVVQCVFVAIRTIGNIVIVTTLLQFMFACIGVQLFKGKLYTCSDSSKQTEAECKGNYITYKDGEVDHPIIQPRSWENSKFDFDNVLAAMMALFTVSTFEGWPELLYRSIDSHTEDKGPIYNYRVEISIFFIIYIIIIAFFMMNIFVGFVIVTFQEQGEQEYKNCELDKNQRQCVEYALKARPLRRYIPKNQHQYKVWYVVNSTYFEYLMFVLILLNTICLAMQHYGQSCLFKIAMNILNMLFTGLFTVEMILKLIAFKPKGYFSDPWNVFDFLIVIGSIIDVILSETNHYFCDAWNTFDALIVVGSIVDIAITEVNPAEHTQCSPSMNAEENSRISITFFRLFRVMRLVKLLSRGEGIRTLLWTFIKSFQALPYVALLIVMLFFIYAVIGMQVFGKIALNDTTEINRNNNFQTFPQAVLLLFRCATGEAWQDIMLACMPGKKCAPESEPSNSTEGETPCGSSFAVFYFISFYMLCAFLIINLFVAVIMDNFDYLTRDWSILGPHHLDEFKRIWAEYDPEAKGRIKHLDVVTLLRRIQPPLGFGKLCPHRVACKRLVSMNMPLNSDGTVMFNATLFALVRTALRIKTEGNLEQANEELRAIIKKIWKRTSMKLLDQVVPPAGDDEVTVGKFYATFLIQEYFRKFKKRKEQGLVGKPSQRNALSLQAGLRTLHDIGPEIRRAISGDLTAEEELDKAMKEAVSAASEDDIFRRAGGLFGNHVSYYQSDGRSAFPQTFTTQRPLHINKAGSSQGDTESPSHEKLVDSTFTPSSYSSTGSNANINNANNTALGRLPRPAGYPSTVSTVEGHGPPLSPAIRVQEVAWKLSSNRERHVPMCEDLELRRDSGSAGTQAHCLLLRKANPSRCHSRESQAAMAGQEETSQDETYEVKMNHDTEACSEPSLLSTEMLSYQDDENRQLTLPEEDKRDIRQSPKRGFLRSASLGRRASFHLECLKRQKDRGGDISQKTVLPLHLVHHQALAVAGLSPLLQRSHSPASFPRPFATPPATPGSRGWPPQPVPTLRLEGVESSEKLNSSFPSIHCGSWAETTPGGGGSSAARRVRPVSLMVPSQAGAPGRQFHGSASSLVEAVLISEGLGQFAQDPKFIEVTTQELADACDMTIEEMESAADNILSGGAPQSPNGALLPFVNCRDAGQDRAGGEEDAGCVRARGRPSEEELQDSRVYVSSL
Cav1.2/β2/α2/δ1 (ICa,L), sequence (P54289 25-956): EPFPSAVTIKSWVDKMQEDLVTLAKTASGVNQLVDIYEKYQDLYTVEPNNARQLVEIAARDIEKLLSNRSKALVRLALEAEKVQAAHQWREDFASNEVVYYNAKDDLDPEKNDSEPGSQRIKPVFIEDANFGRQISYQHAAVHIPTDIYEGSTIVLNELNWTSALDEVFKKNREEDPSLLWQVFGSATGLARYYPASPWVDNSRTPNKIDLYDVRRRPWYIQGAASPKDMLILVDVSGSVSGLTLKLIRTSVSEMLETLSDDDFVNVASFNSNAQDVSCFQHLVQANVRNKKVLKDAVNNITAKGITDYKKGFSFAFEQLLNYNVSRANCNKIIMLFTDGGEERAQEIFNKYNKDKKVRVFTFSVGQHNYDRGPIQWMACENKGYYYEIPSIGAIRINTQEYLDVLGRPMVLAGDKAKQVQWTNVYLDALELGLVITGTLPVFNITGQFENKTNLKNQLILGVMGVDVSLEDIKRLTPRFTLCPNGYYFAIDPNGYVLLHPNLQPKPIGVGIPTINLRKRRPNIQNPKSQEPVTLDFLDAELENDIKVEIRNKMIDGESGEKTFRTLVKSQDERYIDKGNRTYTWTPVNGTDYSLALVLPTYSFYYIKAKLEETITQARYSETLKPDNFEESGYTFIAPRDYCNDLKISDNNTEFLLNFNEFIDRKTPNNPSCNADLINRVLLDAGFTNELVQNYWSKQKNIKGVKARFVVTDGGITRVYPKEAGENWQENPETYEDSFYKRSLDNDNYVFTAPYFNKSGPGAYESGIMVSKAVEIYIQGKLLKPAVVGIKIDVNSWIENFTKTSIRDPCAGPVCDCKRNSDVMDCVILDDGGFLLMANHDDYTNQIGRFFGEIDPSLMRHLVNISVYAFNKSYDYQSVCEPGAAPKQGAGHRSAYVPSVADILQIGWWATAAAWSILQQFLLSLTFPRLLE

hNav1.5 (INa) = hNav1.5 (INa) (Homo sapiens, UniProt Q14524); test: whole-cell patch clamp; settings: AZM alone, external pH 7.4
hERG (IKr) [2] = target: T1, hERG (IKr); test: whole-cell patch clamp, tail current inhibition
Kir2.1 (IK1) = target: T2, Kir2.1 (IK1) (Homo sapiens, UniProt P63252); test: whole-cell patch clamp, pulse current inhibition
T2 sequence (P63252 1-427): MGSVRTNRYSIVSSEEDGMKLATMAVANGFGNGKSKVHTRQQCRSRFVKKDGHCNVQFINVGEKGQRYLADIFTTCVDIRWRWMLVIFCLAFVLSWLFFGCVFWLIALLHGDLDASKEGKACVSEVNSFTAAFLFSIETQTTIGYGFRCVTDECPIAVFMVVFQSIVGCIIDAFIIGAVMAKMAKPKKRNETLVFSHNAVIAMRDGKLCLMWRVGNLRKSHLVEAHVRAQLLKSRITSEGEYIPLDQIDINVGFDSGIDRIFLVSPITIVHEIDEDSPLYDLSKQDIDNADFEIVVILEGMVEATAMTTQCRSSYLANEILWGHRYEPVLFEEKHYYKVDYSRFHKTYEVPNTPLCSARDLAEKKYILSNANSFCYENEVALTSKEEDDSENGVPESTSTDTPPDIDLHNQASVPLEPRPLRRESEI

T1 sequence (Q12809 whole entry): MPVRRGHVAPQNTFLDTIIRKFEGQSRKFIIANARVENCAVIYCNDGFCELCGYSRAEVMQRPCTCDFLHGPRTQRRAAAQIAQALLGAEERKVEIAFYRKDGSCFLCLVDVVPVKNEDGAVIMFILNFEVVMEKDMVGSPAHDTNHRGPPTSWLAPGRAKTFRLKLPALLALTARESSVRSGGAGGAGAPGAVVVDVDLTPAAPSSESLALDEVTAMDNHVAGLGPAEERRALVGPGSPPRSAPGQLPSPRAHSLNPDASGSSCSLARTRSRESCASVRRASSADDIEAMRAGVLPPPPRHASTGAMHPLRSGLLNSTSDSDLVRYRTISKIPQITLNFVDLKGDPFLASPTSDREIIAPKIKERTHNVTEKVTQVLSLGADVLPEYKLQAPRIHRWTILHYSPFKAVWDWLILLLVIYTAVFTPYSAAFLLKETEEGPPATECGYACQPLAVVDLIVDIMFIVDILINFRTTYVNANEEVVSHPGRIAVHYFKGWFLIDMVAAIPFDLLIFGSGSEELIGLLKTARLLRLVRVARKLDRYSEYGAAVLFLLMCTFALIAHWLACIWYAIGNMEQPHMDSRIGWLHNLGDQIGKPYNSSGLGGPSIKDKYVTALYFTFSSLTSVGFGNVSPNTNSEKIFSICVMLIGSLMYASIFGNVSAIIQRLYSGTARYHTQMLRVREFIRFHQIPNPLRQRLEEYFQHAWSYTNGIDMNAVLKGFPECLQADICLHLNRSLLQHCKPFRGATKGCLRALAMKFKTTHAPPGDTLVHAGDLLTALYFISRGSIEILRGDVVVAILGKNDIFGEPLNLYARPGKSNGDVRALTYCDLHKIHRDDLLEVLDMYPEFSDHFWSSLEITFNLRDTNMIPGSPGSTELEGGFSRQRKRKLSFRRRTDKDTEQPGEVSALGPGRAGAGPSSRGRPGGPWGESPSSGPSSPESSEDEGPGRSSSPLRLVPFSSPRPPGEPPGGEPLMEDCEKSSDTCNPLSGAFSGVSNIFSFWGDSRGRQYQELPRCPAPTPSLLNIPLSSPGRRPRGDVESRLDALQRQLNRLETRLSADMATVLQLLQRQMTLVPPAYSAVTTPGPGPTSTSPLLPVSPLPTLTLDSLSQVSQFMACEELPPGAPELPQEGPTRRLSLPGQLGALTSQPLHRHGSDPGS

Row | Structure (SMILES) | % reduction at 100 μM (hERG (IKr) [1]) [%] | % reduction at 100 μM (KCNQ1/E1 (IKs)) [%] | % reduction at 100 μM (Cav1.2/β2/α2/δ1 (ICa,L)) [%] | % reduction at 100 μM (hNav1.5 (INa)) [%] | IC50 (hERG (IKr) [2]) [µM] | IC50 (Kir2.1 (IK1)) [µM]
1 | CC[C@H]1OC(=O)[C@H](C)[C@@H](O[C@H]2C[C@@](C)(OC)[C@@H](O)[C@H](C)O2)[C@H](C)[C@@H](O[C@@H]2O[C@H](C)C[C@H](N(C)C)[C@H]2O)[C@](C)(O)C[C@@H](C)CN(C)[C@H](C)[C@@H](O)[C@]1(C)O [azithromycin] | < 35 | < 35 | < 35 | < 35 | – | –
2 | CCN(CCO)CCCC(C)Nc1ccnc2cc(Cl)ccc12 (stereo not drawn) [hydroxychloroquine] | – | – | – | – | 10 ± 0.6 | 34 ± 5
